Assay results taken from ChEMBL document CHEMBL5620427, “Recent advances in Fragment-based strategies against tuberculosis” (Eur J Med Chem, 2023).

Test system: Mycobacterium tuberculosis variant bovis
Assay: Antibacterial activity against Mycobacterium bovis BCG ATCC 35734 assessed as bacterial growth inhibition measured after 3 weeks by resazurin dye based assay
Format: functional
Conditions: BCG ATCC 35734, 504 h

| Compound | MIC99 [µM] |
| --- | --- |
| CCOC(=O)c1cc(Cl)c(O)c(Cl)c1 | < 53 |
| NS(=O)(=O)c1cc(Cl)cc(Cl)c1 | < 56 |
